# Test results as given in patent US20100261666A1, “COMPOSITIONS AND METHODS FOR THE TREATMENT OF MYOCARDIAL DYSFUNCTION ASSOCIATED WITH SIRS OR SEPSIS” (THE BOARD OF TRUSTEES OF THE UNIVERSITY OF ILLINOIS, priority 2009, published 2010).
# Read-outs that look alike come from different tables or passages of the source.
# Assays:
# TNF-α = assay: Real time PCR, left ventricular TNF-α mRNA expression; assay type: in vivo, rat; settings: LPS infusion
# Method: Total RNA was isolated from left ventricular tissue using the SV Total Isolation System (Promega Corp., Madison, Wis.). Isolation was performed according to manufacturer instructions and followed by DNAse treatment to eliminate residual genomic DNA contamination. RNA integrity was determined by loading 1.0 μg of total RNA isolate from each sample onto a 1.0% agarose gel and staining with ethidium bromide to visualize the 18 and 28s RNA bands. The amount of RNA recovered was determined using the Ribogreen RNA Quantification Kit (Molecular Probes, Eugene, Oreg.). […]
# Specific primer sequences, GenBank accession numbers, Sequence Identifiers, and product sizes are disclosed in Table 5. […] For real-time PCRs, SYBR PCR Master Mix (Bio-Rad Laboratories, Hercules, Calif.) was used, and thermocycling and fluorescence detection was performed using a Stratagene Mx3000p real-time PCR machine.
# After confirmation of primer efficiency and specificity, the concentrations of purified products generated by standard PCR were determined using Molecular Probe's Picogreen DNA quantification kit, and PCR products were serially diluted to obtain standards containing 10^1, 10^2, 10^3, 10^4, 10^5, and 10^6 copies of synthetic template. […]
# adenosine deaminase = adenosine deaminase (Rattus norvegicus, UniProt Q920P6); settings: LV tissue homogenates at 150 minute time point
# Chain of adenosine deaminase (Q920P6 whole entry): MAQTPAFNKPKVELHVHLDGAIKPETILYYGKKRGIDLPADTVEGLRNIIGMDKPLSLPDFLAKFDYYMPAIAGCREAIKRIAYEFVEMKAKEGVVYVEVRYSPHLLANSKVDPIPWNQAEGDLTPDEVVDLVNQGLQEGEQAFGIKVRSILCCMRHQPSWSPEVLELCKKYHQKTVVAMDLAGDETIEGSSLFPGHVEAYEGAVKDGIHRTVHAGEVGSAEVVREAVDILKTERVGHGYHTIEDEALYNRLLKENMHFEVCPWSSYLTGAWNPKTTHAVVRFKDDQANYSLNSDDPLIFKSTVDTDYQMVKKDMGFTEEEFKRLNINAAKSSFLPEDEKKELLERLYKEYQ
# Method: Assays were performed according to the manufacturer's instructions.
# rat isolated hearts = assay: Langendorff rat isolated heart procedure: left ventricular function and coronary flow; assay type: in vivo; settings: for Coronary flow Baseline / Coronary flow 30 min / Coronary flow 60 min / Coronary flow 90 min / Coronary flow 120 min / Coronary flow 150 min: mean ± SEM
# Method: Male Sprague Dawley, virus-free rats (Harlan) were used in each of the examples presented herein. After arrival and a brief acclimation (72 hours minimum), animals were randomized into control or experimental groups. The control and experimental protocols (Table 1) and experimental group treatments (Table 2) are described below.
# Rat isolated heart experiments were performed via Langendorff method. […] CON hearts received vehicle (IP sterile water). […] Heparin was allowed to circulate for 60 seconds at which time a thoracotomy was performed to expose the heart. The heart was quickly removed, placed in ice cold Krebs-Ringers bicarbonate buffer (KRB, described below) and weighed. The ascending aorta was rapidly cannulated and the heart was attached, via the cannula, to the perfusion apparatus. The hearts were perfused with a modified KRB containing (102 mM NaCl, 4.75 mM KCl, 1.20 mM KH2PO4, 1.18 mM MgSO4, 22.75 mM NaHCO3, 11.50 mM Glucose, 4.96 mM Na-Pyruvate, 5.40 mM Na-Fumarate and 1 mM CaCl2), at a temperature of 37.0° C., and pH 7.4 as maintained by vigorous bubbling with 95%/5% O2/CO2.
# At all times, hearts were perfused with KRB at a pressure of 72-78 mmHg set by the height of the water-jacketed reservoir. The left atrium of the heart was then removed, just above the left atrio-ventricular valve. A latex balloon was used to measure left ventricular pressure as an index of cardiac performance. The balloon was constructed by filling the reservoir tip of a latex condom with degassed water. PE-50 tubing, pre-filled with degassed water and attached to a stopcock/Hamilton screw-top syringe assembly, was flanged and placed into the tip of the condom. Surgical silk (5-0) was used to gather the condom tip around the flanged end of the tubing and form a seal, at which time the excess latex was removed.
# The balloon/stopcock assembly was attached to a pressure transducer (Spectramed-Statham) and inserted into the left ventricle to record cardiac performance data via Windaq (DATAQ, CA). Two platinum electrodes, connected to a electrical stimulator (Grass Model 92C), were placed at the lateral edges of the right atria in order to pace the heart at 300 BPM using a voltage 10% greater than that required to capture rhythm. The volume in the latex balloon was increased to produce a left ventricular diastolic pressure (LVdiaP) of 10.0 mmHg.
# The heart was then perfused normally for 30 minutes, a period designated as the equilibration phase. During this phase of perfusion hearts had to maintain a LVdiaP of 10.0±2.0 mmHg to be included in the study. At the end of thirty minutes, baseline measurements of coronary flow and left ventricular pressure were made. This time point was designated as 0 minutes. At this time, hearts receiving LPS (10 μg/mL/min) were infused via injection port/stop cock assembly, into the KRB perfusion stream, just above the aortic cannula for a total infusion time of 60 minutes. Hearts not receiving LPS were infused with vehicle (sterile water, 1.25% coronary flow (mL)·min). At 60 minutes, infusion was halted and normal KRB perfusion continued for 90 minutes (total experimental time post-equilibration=150 minutes).
# Measurements of coronary flow and left ventricular pressure were taken every 30 minutes starting at 0 minutes. At the termination of the experiment, the left ventricle was rapidly excised from the whole heart, flash frozen in liquid nitrogen and stored at −80.0° C. for further analysis.
# Statistical analysis was performed on data generated from these experimental protocols using a one-way analysis of variance (one-way ANOVA) with pair wise comparisons (Fisher Least Significant Difference test (LSD)). Data is presented herein as mean±standard error of the mean (SEM).
# The Fisher LSD was used to determine whether 30 and 150 min values differed from baseline values. In addition, changes from baseline values (e.g., 30 or 150 minute value−respective baseline value) were compared among groups.
# ADA = ADA (Homo sapiens, UniProt P00813); settings: cited from earlier work
# Chain of ADA (P00813 whole entry, species assumed): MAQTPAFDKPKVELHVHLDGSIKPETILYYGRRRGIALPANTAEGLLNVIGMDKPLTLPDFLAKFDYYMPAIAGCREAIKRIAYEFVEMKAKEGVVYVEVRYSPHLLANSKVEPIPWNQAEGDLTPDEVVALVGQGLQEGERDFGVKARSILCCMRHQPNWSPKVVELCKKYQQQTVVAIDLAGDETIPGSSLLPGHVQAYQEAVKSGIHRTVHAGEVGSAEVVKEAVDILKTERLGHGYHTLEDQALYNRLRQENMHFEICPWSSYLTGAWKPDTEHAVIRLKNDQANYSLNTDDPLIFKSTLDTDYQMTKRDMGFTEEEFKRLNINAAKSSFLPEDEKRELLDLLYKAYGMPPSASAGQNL
# ADA1 = assay: Real time PCR, left ventricular ADA1 mRNA expression; assay type: in vivo, rat
# Method: Total RNA was isolated from left ventricular tissue using the SV Total Isolation System (Promega Corp., Madison, Wis.). Isolation was performed according to manufacturer instructions and followed by DNAse treatment to eliminate residual genomic DNA contamination. RNA integrity was determined by loading 1.0 μg of total RNA isolate from each sample onto a 1.0% agarose gel and staining with ethidium bromide to visualize the 18 and 28s RNA bands. The amount of RNA recovered was determined using the Ribogreen RNA Quantification Kit (Molecular Probes, Eugene, Oreg.). 1 μg of total RNA was reverse transcribed in a […] using random hexamer primers with enzyme and buffers supplied in the cDNA First Strand Synthesis kit (MRI Fermentas, Hanover, Md.). First strand cDNA was treated with ribonuclease H to remove residual RNA.
# Real time PCR (qPCR) was performed to measure RNA transcripts for left ventricular TNF-α and ADA1. Three housekeeping genes were selected as follows to produce an intergroup correction factor for target transcripts: Cyclophilin A, hypoxanthine-guanine physphoribosyltransferase (HPRT), and β-actin. Primers were selected using Primer 3 software (Rosen and Skaletsky, Whitehead Institute for Biomedical Research) with the rat genomic sequences for TNF gene, ADA gene, HPRT gene, β-actin gene, and Cyclophilin gene as templates. BLAST (National Center for Biotechnology Information) searches were used to verify that the selected primers were specific for the designated target.
# Specific primer sequences, GenBank accession numbers, Sequence Identifiers, and product sizes are disclosed in Table 5. Primers were used in a standard PCR with the 2× Master Mix PCR reagent (MRI Fermentas) and cDNA from the tissue of interest as a template. The thermocycling profile consisted of one cycle of 95° C. for 10 minutes, followed by 41 cycles of 95° C. for 1 minute, 61° C. for 1 minute, and 72° C. for 1 minute and a final cycle of 72° C. for 10 minutes. Products were run on a 1.0% agarose gel and stained with ethidium bromide to confirm that only one band was amplified and that no primer dimers were present. PCR products were then column-purified (QIAGEN, Valencia, Calif.) and sequenced to confirm target specificity. For real-time PCRs, SYBR PCR Master Mix (Bio-Rad Laboratories, Hercules, Calif.) was used, and thermocycling and fluorescence detection was performed using a Stratagene Mx3000p real-time PCR machine.
# Standards were then amplified by real-time PCR, and standard curves were generated using Stratagene Mx3000P software. […]
# A housekeeping gene was selected for normalization of the real-time PCR data for the TNF-α and ADA1 transcripts. Three potential gene (mRNA) products were analyzed for this purpose: CYC, β-actin and HPRT.
# [1] = LPS infusion, 30 minutes, change from baseline, mean±SEM
compound,measurement,setting,value
"OC[C@H]1O[C@@H](n2cnc3c2N=CNCC3O)CC1O (stereo in doubt) [dCF, 2′-deoxycoformycin]",left ventricular TNF-α mRNA expression compared to LPS hearts,TNF-α,did not significantly alter
same,LV ADA activity compared to CON and LPS hearts,adenosine deaminase; LPS infusion,significant decrease
same,LV ADA activity compared to CON and LPS hearts,adenosine deaminase; vehicle infusion,significant decrease
same,Coronary flow Baseline,rat isolated hearts; LPS infusion 10 μg/mL/min (-LPS group),27.4 ± 1.7 mL/min
same,Coronary flow 30 min,rat isolated hearts; LPS infusion (-LPS group),28.7 ± 1.2 mL/min
same,Coronary flow 60 min,rat isolated hearts; LPS infusion (-LPS group),27.8 ± 1.2 mL/min
same,Coronary flow 90 min,rat isolated hearts; LPS infusion (-LPS group),25.7 ± 1.0 mL/min
same,Coronary flow 120 min,rat isolated hearts; LPS infusion (-LPS group),22.4 ± 1.1 mL/min
same,Coronary flow 150 min,rat isolated hearts; LPS infusion (-LPS group),19.6 ± 0.8 mL/min
same,+dP/dt compared to respective baseline,"rat isolated hearts; LPS infusion, 30 minutes",significantly greater
same,LV developed pressure compared to respective baseline,"rat isolated hearts; LPS infusion, 30 minutes",significantly increased
same,LV diastolic pressure compared to respective baseline,"rat isolated hearts; LPS infusion, 30 minutes",significantly lower
same,LV systolic pressure compared to respective baseline,"rat isolated hearts; LPS infusion, 30 minutes",significantly greater
same,increase in LV developed pressure compared to LPS group,"rat isolated hearts; LPS infusion, 30 minutes",similar
same,increase in LV systolic pressure compared to LPS group,"rat isolated hearts; LPS infusion, 30 minutes",similar
same,increase in −dP/dt compared to LPS group,"rat isolated hearts; LPS infusion, 30 minutes",similar
same,−dP/dt compared to respective baseline,"rat isolated hearts; LPS infusion, 30 minutes",significantly greater
same,increase in LV developed pressure,rat isolated hearts; [1],20.1±3.2 mmHg
same,increase in LV systolic pressure,rat isolated hearts; [1],17.1±3.0 mmHg
same,+dP/dt compared to CON,"rat isolated hearts; LPS infusion, 150 minutes",No differences
same,+dP/dt compared to LPS hearts,"rat isolated hearts; LPS infusion, 150 minutes",improved
same,LV developed pressure compared to CON,"rat isolated hearts; LPS infusion, 150 minutes",No differences
same,LV developed pressure compared to LPS hearts,"rat isolated hearts; LPS infusion, 150 minutes",improved
same,LV developed pressure compared to respective baseline,"rat isolated hearts; LPS infusion, 150 minutes",not significantly different
same,LV diastolic pressure (LPS-induced increase) compared to LPS hearts,"rat isolated hearts; LPS infusion, 150 minutes",improved
same,LV systolic pressure compared to LPS group / among groups,"rat isolated hearts; LPS infusion, 150 minutes",no significant differences
same,−dP/dt compared to LPS alone / among groups,"rat isolated hearts; LPS infusion, 150 minutes",No significant differences
same,−dP/dt compared to respective baseline,"rat isolated hearts; LPS infusion, 150 minutes",significantly lower
same,Coronary flow 30 min,rat isolated hearts; vehicle infusion (-CON group),27.7 ± 1.9 mL/min
same,Coronary flow 60 min,rat isolated hearts; vehicle infusion (-CON group),26.3 ± 2.1 mL/min
same,Coronary flow 90 min,rat isolated hearts; vehicle infusion (-CON group),24.5 ± 1.8 mL/min
same,Coronary flow 120 min,rat isolated hearts; vehicle infusion (-CON group),21.5 ± 1.9 mL/min
same,Coronary flow 150 min,rat isolated hearts; vehicle infusion (-CON group),19.8 ± 2.0 mL/min
same,Coronary flow Baseline,rat isolated hearts; vehicle infusion (-CON group),28.1 ± 1.9 mL/min
same,+dP/dt compared to respective baseline,"rat isolated hearts; vehicle infusion, 30 minutes",no differences
same,LV diastolic pressure compared to respective baseline,"rat isolated hearts; vehicle infusion, 30 minutes",significantly lower
same,−dP/dt compared to respective baseline,"rat isolated hearts; vehicle infusion, 30 minutes",no differences
same,LV developed pressure compared to respective baseline,"rat isolated hearts; vehicle infusion, 150 minutes",not significantly different
same,−dP/dt compared to respective baseline,"rat isolated hearts; vehicle infusion, 150 minutes",significantly lower
same,binding between dCF and ADA,ADA,effectively irreversible
same,left ventricular ADA1 mRNA expression (copy numbers) compared to CON and LPS hearts,ADA1; LPS infusion,significantly lower
same,left ventricular ADA1 mRNA expression (copy numbers) compared to CON and LPS hearts,ADA1; vehicle infusion,significantly lower
